≈ marks a conversion by molar mass, not a printed value.
Key:
Format in all cases: functional
Candida albicans [1] = assay: Antifungal activity against Candida albicans at 100 ug/ml by disc diffusion method; conditions: read-out: IZ
Candida albicans [2] = assay: Antifungal activity against Candida albicans after 24 hrs by serial dilution method
Aspergillus fumigatus [3] = assay: Antifungal activity against Aspergillus fumigatus at 100 ug/ml by disc diffusion method; conditions: read-out: IZ
Aspergillus fumigatus [4] = assay: Antifungal activity against Aspergillus fumigatus after 24 hrs by serial dilution method

| SMILES | zone of inhibition at 100 µg/mL (Candida albicans [1]) | MIC (Candida albicans [2]) | zone of inhibition at 100 µg/mL (Aspergillus fumigatus [3]) | MIC (Aspergillus fumigatus [4]) |
| --- | --- | --- | --- | --- |
| Clc1nc2ccc(Br)cc2cc1Cn1nnc(CSc2ccccc2)n1 | 18 mm | 25 µg/mL (≈ 56 µM) | 15 mm | 5 µg/mL (≈ 11.2 µM) |
| OC(Cn1cncn1)(Cn1cncn1)c1ccc(F)cc1F [FLUCONAZOLE] | 24 mm | 30 µg/mL (≈ 98 µM) | 26 mm | 30 µg/mL (≈ 98 µM) |
| COc1ccc2nc(Cl)c(Cn3nnc(CSc4ccccc4)n3)cc2c1 | 16 mm | 25 µg/mL (≈ 62.8 µM) | 20 mm | 10 µg/mL (≈ 25.1 µM) |
| Cc1ccc2nc(Cl)c(Cn3nnc(Cc4ccccc4)n3)cc2c1 | 12 mm | 25 µg/mL (≈ 71.5 µM) | 12 mm | 25 µg/mL (≈ 71.5 µM) |

Reference: ChEMBL document CHEMBL4004849, “Tetrazolylmethyl quinolines: Design, docking studies, synthesis, anticancer and antifungal analyses” (2017)
